In patent publication US20230302131A1, “MPC INHIBITION FOR PRODUCING T-CELLS WITH A MEMORY PHENOTYPE” (UNIVERSITÉ DE LAUSANNE, priority 2020, published 2023):
Entries after “also recorded” stand apart in the source; their conditions may differ.

How the values were obtained:
[1] = test system: human CD8 T cells from umbilical cord blood; assay: Human cord blood PBMC culture with anti-CD3/CD28 beads, CD62L in CD8 T cells by flow cytometry; type: cell-based; conditions: 25 μM; day 11; 3 different donors; versus DMSO
Protocol: To most closely mimic the experimental conditions that were successful by using naïve mouse OT1 CD8 T cells, it was tested whether the MPCi on the most naïve human CD8+ T cells can be obtained, i.e. from umbilical cord blood (FIG. 1E).
Peripheral blood mononuclear cells were isolated from fresh umbilical vein cord blood on a Percoll gradient. PBMCs were then cultured in RPMI supplemented with 10% human serum. 10^4 PBMC's were seeded per well in a round bottom 96-well plate and activated with anti-CD3/CD28 beads at a 1:2 cell:bead ratio and 300 U/ml rhIL-2, in the presence of 25 μM UK5099 or DMSO. Cells were regularly split and CD62L expression was determined by flow cytometry on day 11.

B16-OVA tumor = assay: B16-OVA melanoma tumor model, adoptive cell transfer of pre-treated OT1 cells; type: in vivo, mouse
Protocol: To assess the functional capacity of the generated memory T cells, the MPCi-treated cells were further tested in a mouse model of melanoma. Briefly, 10^5 ovalbumin-expressing B16 melanoma cells were injected subcutaneously in 6-week-old mice. At day 6 post-engraftment, when a palpable tumor was present, mice were irradiated with 5Gy. The next day 10^5 MPCi- or DMSO-treated OT1 cells were intravenously injected, followed by a subcutaneous vaccination of 50 μg CpG and 10 μg SIINFEKL (FIG. 2A). […] Confirming the Listeria data, the proportion of central memory CD8+ T cells in the spleen was increased upon MPCi treatment (FIG. 2C).
Activated CD45.1+OT-1 splenocytes were culture in vitro for 7 days as described above, collected and purified on a Ficoll gradient, allowing to separate dead and live splenocytes. Live splenocytes were counted with Trypan blue stain 0.4%. 100′000 live splenocytes were transferred into CD45.2+ host mice by tail vein injection.
B16-OVA cells were cultured in DMEM (GIBCO) with 10% FBS and 1% P/S before their subcutaneous injection into the mouse flank. Each mouse received 100′000 cells in a volume of 200 μl of PBS. 6 days after B16-OVA cells injection, tumors were measured, mice were randomized and lymphodepleted by irradiation (5 Gray). 7 days after B16-Ova injection, mice were adoptively transferred with the ACT protocol described previously. Following the ACT, mice received a vaccination of CpG (50 μg/mouse) and N4 Ova peptide (10 μg/mouse) diluted in PBS to obtain a total volume of 100 μl/mouse, injected subcutaneously at the tail base. Tumors were measured every 2 days and the tumor volume was calculated according to the formula: V=π×[d2×D]/6, where d is the minor tumor axis and D is the major tumor axis. At day 26 days post-tumor engraftment, tumors and spleens were dissected were then stained for flow cytometry analyses.
Antibody panel for intra-tumoral T cells and splenocytic T cells was: CD8-PE-texas-Red, CD45.1-Pacific blue, CD45.2-FITC, CD62L-PE-Cy7, CD44-APC-Cy7, PD1-APC, Lag3-PE, and CD127-FITC.
Antibody panel for cytokine detection contained: CD8-PE-texas-Red, CD45.1-FITC, CD45.2-APC, TNFa-Pacific blue, IFNg-PerCP-Cy5.5, IL-2-PE.

adult human CD8 T cells = assay: Adult human PBMC activation with anti-CD3/CD28 beads, T cell phenotype by flow cytometry; type: cell-based; conditions: adult PBMCs, day 9, vs DMSO
Protocol: (§1) FIG. 7: MPC inhibition during the activation and culture of adult human T cells induces a memory phenotype. (A) Experimental design. PBMCs were isolated from adult healthy volunteers and activated with anti-CD3/CD28 beads in the presence of DMSO or UK5099 (25 μM). Beads were removed at day 5 and T cell phenotype was analysed at day 9. (B) Percentage of CD8 T cells expressing the memory marker CD62L. (C) The mean fluorescent intensity of CD62L in the respective positive population. (D) Percentage of CD8 T cells expressing markers that allows their identification as stem cell memory T cells (TSCM). (E-F) Mitochonrial mass (identified by MitoGreen staining, E) and mitochondrial membrane potential (TMRM, F), measured by flow cytometry and expressed as fold change as compared to DMSO. (G) Mitochondrial membrane potential normalized for the mitochondrial mass, expressed as the ratio of […], fold change as compared to DMSO. Pooled data from 2 independant experiments. ns: non-significant, *p<0.05, **[…], ***p<0.001. Data represents mean±s.e.m.
(§2) Heparinised blood was diluted with PBS and pipetted on top of Ficoll-paque (LymphoPrep). After centrifugation at 1800 rpm for 20 minutes at room temperature, the layer of cells at the intersection, containing the PBMCs was removed, washed and resuspended at 5×10^5 cells/ml of RPMI medium containing 8% human serum (AB serum), antibiotics, 2 mM L-Glutamine, 1% non-essential amino acids, 1 mM sodium pyruvate and 50 μM β-mercaptoethanol (all Gibco). Cells were activated with Human T-activator CD3/CD28 Dynabeads at a 1 bead/cell ratio with 150 IU/ml human recombinant IL2 and DMSO or 25 μM UK5099. Throughout the culture, cells were regularly split when necessary and beads were removed at day 5. At day 9, a fraction of the cells was stained with antibodies for flow cytometry analysis or for mitochondrial analysis.

adult human T cells = assay: Mitochondrial staining (MitoGreen, TMRM) of adult human T cells; type: cell-based; conditions: day 9; 25 μM; fold change compared to DMSO
Protocol: as §1, §2
2×10^5 cells were stained with 25 nM TMRM and 50 nM MitoGreen (Molecular Probes, Invitrogen) for 30 minutes in RPMI with 5% FCS at 37° C. […]

## N#CC(=Cc1cn(-c2ccccc2)c2ccccc12)C(=O)O [UK5099, 2-cyano-3-(1-phenyl-1H-indol-3-yl)-2-propenoic acid]
[1]
  CD62L expression in human cord blood CD8 T cells: significant increase
B16-OVA tumor; CD44 and CD62L double positive of transferred cells
  proportion of central memory CD8+ T cells in the spleen: increased
B16-OVA tumor; mice that received 10^5 pre-treated OT1 CD8+ T cells, compared to DMSO, listed as MPCi
  B16 tumor growth: enhanced anti-tumoral activity; also recorded: strongly reduced
B16-OVA tumor; transferred CD8+CD45.1+ population in the tumor, vs DMSO
  expression of PD-1 in T cells infiltrating the tumor: significantly decreased
B16-OVA tumor; tumor single cell suspension restimulated with SIINFEKL for 4 h
  cells double positive for IFNγ and TNF upon restimulation: higher proportion
B16-OVA tumor; upon dissection, data not shown
  percentage of transferred cells out of total CD8+ T cells in spleen and tumor: not strikingly different
Adult human CD8 T cells; 25 μM
  population of stem cell-like memory T cells (TSCM): increased
Adult human CD8 T cells; UK5099 25 μM
  population of CD8 T cells positive for CD62L: further induce
Adult human CD8 T cells
  mean fluorescent intensity of the CD62L signal in the CD62L-positive cells: increased
Adult human T cells
  mitochondrial membrane potential (TMRM): significantly increased
  mitochondrial membrane potential normalized for the mitochondrial mass: more polarised mitochondria
  total mitochondrial mass (MitoGreen): did not impact
